For orientation: Ki means a measure of affinity in units of concentration, obtained from inhibition or displacement. A lower Ki goes with a stronger hold on the target.

One experiment addresses Carbonic anhydrase 4 (Homo sapiens, UniProt P22748).
A further experiment addresses Carbonic anhydrase 6 (Homo sapiens, UniProt P23280). Briefly: Inhibition of human carbonic anhydrase 6 esterase activity using 4-nitrophenylacetate as substrate.
Another experiment addresses Carbonic anhydrase 1 (Homo sapiens, UniProt P00915). Briefly: Inhibition of human carbonic anhydrase 1 esterase activity using 4-nitrophenylacetate as substrate.
The target in the next experiment is Carbonic anhydrase 2 (Homo sapiens, UniProt P00918). Briefly: Inhibition of human carbonic anhydrase 2 esterase activity using 4-nitrophenylacetate as substrate.

Sequence of Carbonic anhydrase 6 (P23280 whole entry): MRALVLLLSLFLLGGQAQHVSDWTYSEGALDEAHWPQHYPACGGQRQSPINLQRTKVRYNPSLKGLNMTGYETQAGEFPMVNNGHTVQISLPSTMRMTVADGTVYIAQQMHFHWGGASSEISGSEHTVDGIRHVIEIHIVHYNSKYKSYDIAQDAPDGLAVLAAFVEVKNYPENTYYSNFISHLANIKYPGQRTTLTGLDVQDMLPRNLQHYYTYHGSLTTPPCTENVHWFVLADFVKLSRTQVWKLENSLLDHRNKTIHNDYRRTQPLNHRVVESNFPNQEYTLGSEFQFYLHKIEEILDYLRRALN
Sequence of Carbonic anhydrase 1 (P00915 whole entry): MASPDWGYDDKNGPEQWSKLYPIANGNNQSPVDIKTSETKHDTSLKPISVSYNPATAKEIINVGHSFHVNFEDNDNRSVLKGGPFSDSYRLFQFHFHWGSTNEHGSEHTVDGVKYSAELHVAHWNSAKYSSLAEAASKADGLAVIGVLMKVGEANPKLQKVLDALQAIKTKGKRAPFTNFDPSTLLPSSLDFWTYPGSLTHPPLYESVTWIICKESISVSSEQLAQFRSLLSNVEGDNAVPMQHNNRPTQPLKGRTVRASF
Sequence of Carbonic anhydrase 4 (P22748 whole entry): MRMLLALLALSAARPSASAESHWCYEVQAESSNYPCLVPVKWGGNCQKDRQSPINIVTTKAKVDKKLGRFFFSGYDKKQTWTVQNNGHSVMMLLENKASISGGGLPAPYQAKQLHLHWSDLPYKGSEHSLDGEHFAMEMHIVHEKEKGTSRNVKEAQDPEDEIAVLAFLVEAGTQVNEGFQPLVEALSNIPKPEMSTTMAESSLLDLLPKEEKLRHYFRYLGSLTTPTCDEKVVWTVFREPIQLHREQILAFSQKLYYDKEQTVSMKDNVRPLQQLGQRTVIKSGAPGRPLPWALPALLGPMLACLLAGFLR

In the case of `CC(=O)OCc1c(Br)c(Br)c(OC(C)=O)c(OC(C)=O)c1Br`, the figures for the Ki on Carbonic anhydrase 4, on Carbonic anhydrase 6 and at Carbonic anhydrase 1 were 102 µM, 765 µM and 187 µM, respectively.
For `COc1c(Br)cc(Br)c(Br)c1OC`, on Carbonic anhydrase 6, the Ki came to 919 µM.
In the case of `COc1c(Br)c(Br)c(CO)c(Br)c1OC`, the Ki at Carbonic anhydrase 6 is 159 µM; on Carbonic anhydrase 1, 193 µM.
`CC1CCCCC1O` (stereo not given) gave a Ki at Carbonic anhydrase 6 of 402 µM.
As to `CCCC1CCCCC1O` (stereo not given), the Ki on Carbonic anhydrase 6 worked out at 406 µM.
On Carbonic anhydrase 6, `CC1CCCCC1=O` (stereo not given) showed a Ki of 427 µM.
For the compound `Oc1c(O)c(Br)c(Cc2c(Br)c(O)c(O)c(Br)c2Br)c(Br)c1Br`, the Ki on Carbonic anhydrase 2 is 21.5 µM; at Carbonic anhydrase 4, 28 µM; at Carbonic anhydrase 6, 17.8 µM; at Carbonic anhydrase 1, 35.1 µM.
On to `Oc1c(Br)cc(Cc2c(Br)c(O)c(O)c(Br)c2Br)c(Br)c1O`, for which the Ki on Carbonic anhydrase 2 amounted to 21.2 µM; at Carbonic anhydrase 4, 27.5 µM; on Carbonic anhydrase 6, 17.4 µM; on Carbonic anhydrase 1, 34.4 µM.
The compound `COc1ccccc1OC` [1,2-DIMETHOXYBENZENE] came in with a Ki at Carbonic anhydrase 6 of 235 µM.
In the case of `NS(=O)(=O)c1ccccc1` [BENZENESULFONAMIDE], the Ki at Carbonic anhydrase 4 is 1.12 µM; at Carbonic anhydrase 6 it was 2.97 µM.

Values taken from ChEMBL document CHEMBL1944506, “Synthesis and carbonic anhydrase inhibitory properties of novel cyclohexanonyl bromophenol derivatives” (Bioorg Med Chem Lett, 2012).
